Assay results reported in patent publication US10202650B2, “Methods for monitoring ELOVL2, KLF14 and PENK gene expression following treatment with vitamin C” (The Regents of the University of California, priority 2016, dated 2019).

What was measured:
Format in all cases: cell-based, human
ELOVL2 [1] = test: ELOVL2 expression in aging WI38 cells (PD55)
Experimental: (§1) WI38 cells at PD55 (55th population doubling) were incubated with different concentrations of vitamin C (Vc), L-dehydro ascorbic acid (DHAA or DHA), or L-ascorbic acid 2-phosphate (VcP). DHAA (or DHA) is an oxidized form of vitamin C. L-ascorbic acid 2-phosphate (VcP) is a vitamin C derivative. Three concentrations were used for each tested compound and the concentrations included 0.3 mM (equivalent to […]), 1.2 mM, or 1.8 mM.
The expression of ELOVL2 is also observed to be increased with a low concentration of vitamin C and all concentrations of L-ascorbic acid 2-phosphate (VcP) but not with DHAA (FIG. 27).

WI38 cells at PD55 [2] = test: WI38 PD55 confluency / cell proliferation, Example 6
Experimental: as §1

WI38 cells at PD55 [3] = test: Cell senescence of WI38 PD55 by beta gal staining assay
Experimental: as §1

WI38 fibroblasts = test: Proliferation (confluency) of WI38 fibroblasts, Example 1; conditions: for cell proliferation: concentration not stated
Experimental: (§2) The proliferation effects of vitamin C on WI38 fibroblasts were tested. This cell line is useful as an aging model since it is a mortal human cell line that follows the Hayflick limit, in that it undergoes a certain number of cell divisions before stopping. The senescence level in WI38 increased as the cell line divided. […] A membrane-soluble derivative of vitamin C, 6-O-Palmitoyl-L-ascorbic acid (PalmAA), which has an additional fatty acid that allows it to pass through the cell membrane, was also tested. The oxidized derivative of vitamin C, dehydroascorbic acid (DHAA), as Vitamin C is actively converted to DHAA in cell culture media, was tested as well. Insulin was also added to this experiment to upregulate Glut-1 transporter, through which DHAA enters the cell.
A) Cell images of 12-well plate treated with low concentration vitamin C at Day 0, 4 and 5 for PD46. B) Confluency plot calculated through ImageJ of PD46, n=2. C) and D) Expression graphs for ARM (e.g., ELOVL2) and SLC2A1 for PD46, n=3. E) Cell images of 12-well treated with high concentration vitamin C at Day 0, 4 and 5 for PD48. F) Confluency plot calculated through ImageJ of PD48, n=2. G) and […]) Expression graphs for ARM and SLC2A1 for PD48, n=3.
FIG. 2 illustrates phenotypic and genotypic effects of vitamin C treatment were analyzed on younger WI38 PD42 and older WI38 PD58 fibroblasts. A) Cell images of 12-well at Day 0, 1 and 2 of treatment for PD42. B) Confluency plot calculated through ImageJ of PD42, n=2. C) and D) Expression graphs for ARM (e.g., ELOVL2) and SLC2A1 for PD42, n=3. E) Cell images of 12-well at Day 0, 5 and 7 of treatment for PD58. F) Confluency plot calculated through ImageJ of PD58, n=2. G) and H) Expression graphs for ARM (e.g., ELOVL2) and SLC2A1 for […], n=3. I) Cell images of senescence and DAPI staining of PD45.5 fibroblasts. J) Graph of percentage senescence for younger PD32 fibroblast and older PD45.5 fibroblast. n=3.
A) Cell images of 12-well at Day 0 and Day 8 of treatment for PD55. B) Confluency plot calculated through ImageJ for PD55, n=2. C) and D) Expression graph for ARM (e.g., ELOVL2) and SLC2A1 for PD55, n=3.
A) Diagram of postulated pathway for interconversion of DHAA to vitamin C and their effect on fibroblast cells. B) Cell images of 12-well at Day 10 of treatment for PD54. C) Confluency plot calculated through ImageJ of PD54, n=2. D and E) Expression graphs for ARM (e.g., ELOVL2) and SLC2A1 for PD54, n=3. F) Graph of percentage senescence for younger PD32 fibroblast and older PD45.5 fibroblast. n=3. G) Fluorescent ROS assay showing fluorescent ROS relative to total fibroblasts in PD48 fibroblasts.

ELOVL2 [4] = test: Expression of age-related marker (ARM, e.g. ELOVL2) in WI38 fibroblasts, Example 1
Experimental: as §2
A) Cell images of 12-well plate treated with low concentration vitamin C at Day 0, 4 and 5 for PD46. B) Confluency plot calculated through ImageJ of PD46, n=2. […] F) Confluency plot calculated through ImageJ of PD48, n=2. […]
FIG. 2 illustrates phenotypic and genotypic effects of vitamin C treatment were analyzed on younger WI38 PD42 and older WI38 PD58 fibroblasts. […] B) Confluency plot calculated through ImageJ of PD42, n=2. […] F) Confluency plot calculated through ImageJ of PD58, n=2. […]
A) Cell images of 12-well at Day 0 and Day 8 of treatment for PD55. B) Confluency plot calculated through ImageJ for PD55, n=2. […]

aged fibroblast = test: Reversal of biological age / reprogramming of aged fibroblast into iPSCs; conditions: low concentration
Experimental: As used herein, the terms “biological age (bioage),” “chemical age,” “methylomic age,” and “molecular age” are equivalent or synonymous. The biological age is determined using a set of age-associated markers (e.g., epigenetic markers) of a subject or an organism. In the current disclosure, the biological age is determined from an analysis of the modification status of specific CpG dinucleotide and, in particular, e.g., the methylation status at the C-5 position of cytosine.

[5] = all concentrations (0.3 mM, 1.2 mM, 1.8 mM)
[6] = all three concentrations (0.3 mM, 1.2 mM, 1.8 mM)

## O=C1O[C@H]([C@@H](O)CO)C(O)=C1OP(=O)(O)O [L-ascorbic acid 2-phosphate]
ELOVL2 [1]; [5]
  expression of ELOVL2: increased
WI38 cells at PD55 [2]; [6]
  cell proliferation: cell proliferation is observed
WI38 cells at PD55 [3]; [5]
  protection against cell senescence: protective against cell senescence

## O=C1O[C@H]([C@@H](O)CO)C(=O)C1=O [DHAA, dehydroascorbic acid]
ELOVL2 [1]; [5]
  expression of ELOVL2: not
WI38 cells at PD55 [2]; [6]
  cell proliferation: increased cell proliferation is not observed
WI38 fibroblasts
  cell proliferation: induced lower cell proliferation compared to an equal concentration of vitamin C
WI38 cells at PD55 [3]; [5]
  protection against cell senescence: did not exert a protective effect against cell senescence

## CCCCCCCCCCCCCCCC(=O)OC[C@H](O)[C@H]1OC(=O)C(O)=C1O [6-O-Palmitoyl L-ascorbic acid, 6-O-Palmitoyl-L-ascorbic acid]
WI38 fibroblasts
  cell proliferation: induced minimal proliferation
ELOVL2 [4]
  gene expression change in the age related marker: caused no gene expression change in the age related marker

## O=C1O[C@H]([C@@H](O)CO)C(O)=C1O [vitamin C, L-ascorbic acid]
ELOVL2 [1]; low concentration
  expression of ELOVL2: increased
WI38 cells at PD55 [2]; higher concentration, 1.2 mM or 1.8 mM, relative to 0.3 mM
  cell proliferation rate: slower cell proliferation rate relative to the concentration at 0.3 mM
WI38 cells at PD55 [2]; low concentration, 0.3 mM
  cell proliferation: increase cell proliferation
Aged fibroblast
  biological age: reversed
  reprogramming of aged fibroblast into iPSCs: reverted into iPSCs from aged fibroblast
WI38 fibroblasts; 50 μg/mL
  proliferative effect, older vs younger fibroblast cells: more pronounced on older fibroblast cells compared to younger fibroblast cells
WI38 fibroblasts; higher concentrations, 200 μg/mL to 500 μg/mL
  fibroblast cell growth / cell death: slowed or inhibited fibroblast cell growth while causing cell death
WI38 fibroblasts; low concentrations, 50 μg/mL to 100 μg/mL
  fibroblast proliferation: induced fibroblast proliferation
WI38 cells at PD55 [3]; low concentration
  protection against cell senescence: protective against cell senescence
